Source: article PMC3188562, “Hyperforin Inhibits Akt1 Kinase Activity and Promotes Caspase-Mediated Apoptosis Involving Bad and Noxa Activation in Human Myeloid Tumor Cells” (PLoS ONE, 2011)

Molecular target: Akt1 (Homo sapiens, UniProt P31749)
Sequence (P31749 whole entry): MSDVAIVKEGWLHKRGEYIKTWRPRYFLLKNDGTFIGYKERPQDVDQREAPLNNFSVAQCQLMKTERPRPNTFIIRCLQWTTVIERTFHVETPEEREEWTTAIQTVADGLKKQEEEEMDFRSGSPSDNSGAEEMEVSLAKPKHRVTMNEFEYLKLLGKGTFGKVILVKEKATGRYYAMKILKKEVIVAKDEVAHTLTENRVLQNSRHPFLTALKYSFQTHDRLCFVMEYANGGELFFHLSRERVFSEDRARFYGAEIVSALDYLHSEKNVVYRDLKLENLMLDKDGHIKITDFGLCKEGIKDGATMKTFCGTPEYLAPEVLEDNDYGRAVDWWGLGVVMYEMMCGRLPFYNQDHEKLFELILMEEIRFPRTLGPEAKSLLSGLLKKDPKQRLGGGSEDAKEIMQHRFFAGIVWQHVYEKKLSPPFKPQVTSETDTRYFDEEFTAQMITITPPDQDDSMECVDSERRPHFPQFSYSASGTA

CC(C)=CCCC1(C)C(CC=C(C)C)CC2(CC=C(C)C)C(=O)C(CC=C(C)C)=C(O)C1(C(=O)C(C)C)C2=O (stereo not drawn) [HF, 5-hydroxy-6R-methyl-1R,3,7S-tris(3-methyl-2-butenyl)-5S-(2-methyl-1-oxopropyl)-6R-(4-methyl-3-pentenyl)-bicyclo[3.3.1]non-3-ene-2,9 dione]
IC50: 2500 nM
